What was measured:
P388 [1] = experiment: Cytotoxicity against mouse P388 cells after 4 days by MTT assay; type: functional, cell-based; conditions: P388, 96 h
P388 [2] = experiment: Cytotoxicity against mouse CPT45-resistant topoisomerase 1-deficient P388 cells after 4 days by MTT assay; type: functional, cell-based; conditions: P388, 96 h
[3] = biological target: T1, DNA topoisomerase 1 (Homo sapiens) (UniProt P11387); experiment: Inhibition of human topoisomerase 1 expressed in Escherichia coli assessed as YepG plasmid DNA cleavage
T1 sequence (whole entry): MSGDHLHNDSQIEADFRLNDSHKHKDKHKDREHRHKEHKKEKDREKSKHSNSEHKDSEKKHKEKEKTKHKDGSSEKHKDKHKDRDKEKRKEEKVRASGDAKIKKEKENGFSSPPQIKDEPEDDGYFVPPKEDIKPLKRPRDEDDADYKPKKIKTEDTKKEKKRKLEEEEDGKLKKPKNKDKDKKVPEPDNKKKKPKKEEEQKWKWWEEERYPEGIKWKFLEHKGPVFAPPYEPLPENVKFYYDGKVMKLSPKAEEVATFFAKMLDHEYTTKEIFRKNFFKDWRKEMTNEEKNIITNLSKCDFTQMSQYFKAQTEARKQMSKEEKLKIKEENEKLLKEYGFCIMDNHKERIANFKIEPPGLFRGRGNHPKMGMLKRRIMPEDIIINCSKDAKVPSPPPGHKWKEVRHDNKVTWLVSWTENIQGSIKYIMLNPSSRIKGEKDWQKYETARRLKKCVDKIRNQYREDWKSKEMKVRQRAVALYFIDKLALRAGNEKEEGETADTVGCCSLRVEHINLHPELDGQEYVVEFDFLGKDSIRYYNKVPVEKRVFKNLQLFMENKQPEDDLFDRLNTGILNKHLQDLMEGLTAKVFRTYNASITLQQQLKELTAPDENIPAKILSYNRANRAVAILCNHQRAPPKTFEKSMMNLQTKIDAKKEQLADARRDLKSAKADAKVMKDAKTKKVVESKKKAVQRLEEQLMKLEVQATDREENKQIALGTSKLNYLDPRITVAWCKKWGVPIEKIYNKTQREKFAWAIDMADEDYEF

[4] = Cytotoxicity against human RPMI8402 cells after 4 days by MTT assay; type: functional, cell-based; conditions: RPMI 8402, 96 h
[5] = Cytotoxicity against human camptothecin-resistant CPT-K5 cells after 4 days by MTT assay; type: functional, cell-based; conditions: CPT-K5, 96 h
[6] = Cytotoxicity against human KB3-1 cells after 4 days by MTT assay; type: functional, cell-based; conditions: KB 3-1, 96 h
[7] = Cytotoxicity against human multidrug resistant MDR1 overexpressing human KBV1 cells after 4 days by MTT assay; type: functional, cell-based; conditions: KB-V1, 96 h
[8] = Cytotoxicity against human multidrug resistant BCRP overexpressing human KBH5.0 cells after 4 days by MTT assay; type: functional, cell-based; conditions: KBH5.0 cell, 96 h
MDA-MB-231 [9] = experiment: Antitumor activity against human MDA-MB-231 cells xenografted in athymic nude mouse assessed as tumor volume on day 7 at initial dose of 1.0 mg/kg, ip qd X 4/week and dose adjustments were made based upon effect or lack of effect on average body weight (14.6 mg/kg total dose); type: functional; conditions: route intraperitoneal
MDA-MB-231 [10] = experiment: Antitumor activity against human MDA-MB-231 cells xenografted in athymic nude mouse assessed as tumor volume on day 14 at initial dose of 1.0 mg/kg, ip qd X 4/week and dose adjustments were made based upon effect or lack of effect on average body weight (14.6 mg/kg total dose); type: functional; conditions: route intraperitoneal
MDA-MB-231 [11] = experiment: Antitumor activity against human MDA-MB-231 cells xenografted in athymic nude mouse assessed as tumor volume on day 21 at initial dose of 1.0 mg/kg, ip qd X 4/week and dose adjustments were made based upon effect or lack of effect on average body weight (14.6 mg/kg total dose); type: functional; conditions: route intraperitoneal
MDA-MB-231 [12] = experiment: Antitumor activity against human MDA-MB-231 cells xenografted in athymic nude mouse assessed as tumor volume on day 7 at initial dose of 2.0 mg/kg, po qd X 4/week and dose adjustments were made based upon effect or lack of effect on average body weight (29.3 mg/kg total dose); type: functional
MDA-MB-231 [13] = experiment: Antitumor activity against human MDA-MB-231 cells xenografted in athymic nude mouse assessed as tumor volume on day 14 at initial dose of 2.0 mg/kg, po qd X 4/week and dose adjustments were made based upon effect or lack of effect on average body weight (29.3 mg/kg total dose); type: functional
MDA-MB-231 [14] = experiment: Antitumor activity against human MDA-MB-231 cells xenografted in athymic nude mouse assessed as tumor volume on day 21 at initial dose of 2.0 mg/kg, po qd X 4/week and dose adjustments were made based upon effect or lack of effect on average body weight (29.3 mg/kg total dose); type: functional
MDA-MB-231 [15] = experiment: Antitumor activity against human MDA-MB-231 cells xenografted in athymic nude mouse assessed as tumor volume on day 31 at initial dose of 2.0 mg/kg, po qd X 4/week and dose adjustments were made based upon effect or lack of effect on average body weight (29.3 mg/kg total dose); type: functional
MDA-MB-231 [16] = experiment: Antitumor activity against human MDA-MB-231 cells xenografted in athymic nude mouse assessed as tumor volume on day 31 at initial dose of 1.0 mg/kg, ip qd X 4/week and dose adjustments were made based upon effect or lack of effect on average body weight (14.6 mg/kg total dose); type: functional; conditions: route intraperitoneal
MDA-MB-231 [17] = experiment: Antitumor activity against human MDA-MB-231 cells xenografted in athymic nude mouse assessed as tumor volume on day 14 at initial dose of 3.0 mg/kg, po qd X 5/week for 2 weeks and dose adjustments were made based upon effect or lack of effect on average body weight (72.5 mg/kg total dose); type: functional
MDA-MB-231 [18] = experiment: Antitumor activity against human MDA-MB-231 cells xenografted in athymic nude mouse assessed as tumor volume on day 7 at initial dose of 2.0 mg/kg, ip qd X 5/week for 2 weeks and dose adjustments were made based upon effect or lack of effect on average body weight (32.5 mg/kg total dose); type: functional; conditions: route intraperitoneal
MDA-MB-231 [19] = experiment: Antitumor activity against human MDA-MB-231 cells xenografted in athymic nude mouse assessed as tumor volume on day 14 at initial dose of 2.0 mg/kg, ip qd X 5/week for 2 weeks and dose adjustments were made based upon effect or lack of effect on average body weight (32.5 mg/kg total dose); type: functional; conditions: route intraperitoneal
MDA-MB-231 [20] = experiment: Antitumor activity against human MDA-MB-231 cells xenografted in athymic nude mouse assessed as tumor volume on day 21 at initial dose of 2.0 mg/kg, ip qd X 5/week for 2 weeks and dose adjustments were made based upon effect or lack of effect on average body weight (32.5 mg/kg total dose); type: functional; conditions: route intraperitoneal
MDA-MB-231 [21] = experiment: Antitumor activity against human MDA-MB-231 cells xenografted in athymic nude mouse assessed as tumor volume on day 31 at initial dose of 2.0 mg/kg, ip qd X 5/week for 2 weeks and dose adjustments were made based upon effect or lack of effect on average body weight (32.5 mg/kg total dose); type: functional; conditions: route intraperitoneal
MDA-MB-231 [22] = experiment: Antitumor activity against human MDA-MB-231 cells xenografted in athymic nude mouse assessed as tumor volume on day 7 at initial dose of 3.0 mg/kg, po qd X 5/week for 2 weeks and dose adjustments were made based upon effect or lack of effect on average body weight (72.5 mg/kg total dose); type: functional
MDA-MB-231 [23] = experiment: Antitumor activity against human MDA-MB-231 cells xenografted in athymic nude mouse assessed as tumor volume on day 21 at initial dose of 3.0 mg/kg, po qd X 5/week for 2 weeks and dose adjustments were made based upon effect or lack of effect on average body weight (72.5 mg/kg total dose); type: functional
MDA-MB-231 [24] = experiment: Antitumor activity against human MDA-MB-231 cells xenografted in athymic nude mouse assessed as tumor volume on day 31 at initial dose of 3.0 mg/kg, po qd X 5/week for 2 weeks and dose adjustments were made based upon effect or lack of effect on average body weight (72.5 mg/kg total dose); type: functional

Row | Structure (SMILES) | IC50 (P388 [1]) [nM] | IC50 (P388 [2]) [nM] | REC [3] | IC50 [4] [nM] | IC50 [5] [nM] | IC50 [6] [nM] | IC50 [7] [nM] | IC50 [8] [nM] | also measured
1 | COc1cc2c(=O)n(CCN(C)Cc3ccccc3)c3c4cc5c(cc4nnc3c2cc1OC)OCO5 | 25 | 2800 | 0.4 | 40 | > 10000 | 35 | 85 | 40 | 
2 | CC[C@@]1(O)C(=O)OCc2c1cc1n(c2=O)Cc2cc3ccccc3nc2-1 [CAMPTOTHECIN] | 9 | > 10000 | 0.2 | 5 |  | 15 |  |  | 
3 | COc1cc2c(=O)n(CCN(Cc3ccccc3)C(C)C)c3c4cc5c(cc4nnc3c2cc1OC)OCO5 | 21 | 2300 | 0.5 | 45 | 3300 | 16 | 75 | 40 | 
4 | COc1cc2c(=O)n(CCn3ccnc3)c3c4cc5c(cc4nnc3c2cc1OC)OCO5 | 190 | > 10000 | 0.1 | 400 | > 10000 | 380 | 3300 | 3300 | 
5 | COc1cc2c(=O)n(CCO)c3c4cc5c(cc4nnc3c2cc1OC)OCO5 | 12 | 700 | 0.3 | 13 | 1300 | 10 | 18 | 55 | 
6 | COc1cc2c(=O)n(CCNC(CO)(CO)CO)c3c4cc5c(cc4nnc3c2cc1OC)OCO5 | 40 | 3000 | 0.2 | 65 | 5700 | 50 | 280 | 400 | 
7 | COc1cc2c(=O)n(CCN(C)CCN(C)C)c3c4cc5c(cc4nnc3c2cc1OC)OCO5 | 19 | 300 | 0.4 | 33 | 2200 | 17 | 180 | 250 | 
8 | COc1cc2c(=O)n(CCN(C)C)c3c4cc5c(cc4nnc3c2cc1OC)OCO5 | 2 | 230 | 0.3 | 2 | 740 | 5 | 4 | 4 | 
9 | COc1cc2c(=O)n(CCNC(C)C)c3c4cc5c(cc4nnc3c2cc1OC)OCO5 | 2 | 110 | 0.08 | 3 | 300 | 0.5 | 7 | 2 | Activity (MDA-MB-231 [9]): 72 mm3; Activity (MDA-MB-231 [10]): 112 mm3; Activity (MDA-MB-231 [11]): 150 mm3; Activity (MDA-MB-231 [12]): 82 mm3; Activity (MDA-MB-231 [13]): 92 mm3; Activity (MDA-MB-231 [14]): 185 mm3; Activity (MDA-MB-231 [15]): 253 mm3; Activity (MDA-MB-231 [16]): 231 mm3
10 | COc1cc2c(=O)n(CCN(C)C)c3c4cc5c(cc4ncc3c2cc1OC)OCO5 |  |  | 0.3 | 2 | 900 | 5 | 15 | 12 | 
11 | CNCCn1c(=O)c2cc(OC)c(OC)cc2c2nnc3cc4c(cc3c21)OCO4 | 1 | 200 | 0.03 | 3 | 230 | 0.7 | 23 | 18 | Activity (MDA-MB-231 [17]): 113 mm3; Activity (MDA-MB-231 [18]): 146 mm3; Activity (MDA-MB-231 [19]): 129 mm3; Activity (MDA-MB-231 [20]): 109 mm3; Activity (MDA-MB-231 [21]): 104 mm3; Activity (MDA-MB-231 [22]): 116 mm3; Activity (MDA-MB-231 [23]): 144 mm3; Activity (MDA-MB-231 [24]): 177 mm3
